Test results reported in patent publication US20180263985A1, “MODULATORS OF TOLL-LIKE RECEPTORS FOR THE TREATMENT OF HIV” (Gilead Sciences, Inc., priority 2015, published 2018).
Where “and” joins values, the source holds several entries; their conditions need not be identical. Equal values may be shown once.

Legend:
[1] = test system: serum cytokines and chemokines; experiment: Induction of cytokines and chemokines in serum of orally dosed Rhesus macaques (Luminex); assay type: in vivo
Experimental: The TLR8 modulator of Example 65 was formulated in 2% ethanol, 40% polyethylene glycol 300, and 58% 0.01 N hydrochloric acid. Oral solutions of formulations were prepared by dissolving a sufficient amount of the compound in the 2% ethanol, 40% polyethylene glycol 300, and 58% 0.01 N hydrochloric acid vehicle to arrive at 0.5, 1.5, or 5 mg/ml of Example 65. Rhesus macaques were dosed orally with 1.2 to 2 mls/kg to achieve dose levels of 1, 3, 6, or 10 mg/kg Example 65. Blood samples were collected at 2, 4, 8, 12, 24 and 48 hours postdose (FIG. 5) and allowed to clot under ambient conditions prior to centrifugation to obtain serum. The indicated cytokines and chemokines were quantified in serum with a multiplexed Luminex® assay following the manufacturer's instructions (Life Technologies). […] At 10 and 6 mg/kg, IL-12, IL-1RA and MCP-1 peaked near 10 ng/ml and IL-6 peaked at 1 ng/ml.

[2] = test system: PBMC cultures from HIV-1 infected subjects on cART; experiment: Induced HIV-1 expression in PBMC cultures, HIV-1 RNA in supernatant after 4 days (COBAS TaqMan HIV-1 Test); assay type: cell-based, human; conditions: for Geometric Mean with ≥2-Fold-Activation / Range with ≥2-Fold-Activation: N = 5; for N with ≥2-Fold-Activation: subjects; for Fold HIV-1 Activation: vs DMSO
Experimental: In some experiments, IL-15, the TLR8 modulating compound of Example 15 or the combination of IL-15 and Example 15 were used at the indicated concentrations (Table 4). The cultures were maintained in the presence of antivirals (elvitegravir and efavirenz at 100 nM each) to prevent viral spread and amplification in order to measure the quantity of virus produced (latency reversal) by the TLR8 modulating compounds. At the end of the incubation period, cell-free culture supernatants were harvested and HIV-1 RNA levels were quantified by the COBAS® AmpliPrep/COBAS®TaqMan HIV-1 Test, v2.0 (Roche).
In each table, fold-activation is calculated as a ratio of HIV-1 RNA copies per ml of cell culture supernatants from TLR8 agonist treated samples and DMSO treated controls. Geometric mean fold-activation from three independent incubation samples for each condition of each subject's PBMCs. Values in bold indicate ≥2-fold HIV activation.
To assess if the latency reversal induced by TLR8 agonism could further potentiate latency reversal by a separate mechanisms, we treated cells as described above with IL-15, Example 15, or a combination of IL-15 and Example 15 (Table 4).

[3] = test system: HIV-specific polyfunctional CD8 T cells; experiment: Induced HIV-specific polyfunctional CD8+ T cells in PBMC cultures from HIV-1 infected subjects on cART; assay type: cell-based, human; conditions: for Median HIV-specific polyfunctional CD8 T cells (% proliferating CD8+ cells double positive for IFN-γ and TNF-α): HIV peptide pool, 5 subjects

CCCC[C@](C)(CNC(C)=O)Nc1nc(N)nc2cc(Cl)cnc12 [Example 65]
Induction of cytokines associated with TLR8 activation (IL-12, IL-6, IL-1RA, MCP-1) in serum ([1]; oral 1, 3, 6, or 10 mg/kg): induced in a dose-dependent manner
IL-1RA peak serum concentration ([1]; oral 10 and 6 mg/kg): ~10 ng/mL
IL-6 peak serum concentration ([1]; oral 10 and 6 mg/kg): 1 ng/mL
IL-12 peak serum concentration ([1]; oral 10 and 6 mg/kg): ~10 ng/mL
MCP-1 peak serum concentration ([1]; oral 10 and 6 mg/kg): ~10 ng/mL
Time of peak serum cytokine concentrations post-dose ([1]; oral dosing): 2 h

CCC[C@@H](CO)Nc1nc(N)nc2cc(F)c(F)cc12 [Example 119, (S)-2-((2-amino-6,7-difluoroquinazolin-4-yl)amino)pentan-1-ol, reference compound]
Subjects with ≥2-Fold-Activation (%) ([2]; 156 nM): (67) %
Geometric Mean with ≥2-Fold-Activation ([2]; 156 nM): 4.2 fold
Range with ≥2-Fold-Activation ([2]; 156 nM): 3.6-4.9 fold
N with ≥2-Fold-Activation ([2]; 156 nM): 2 of 3
Fold HIV-1 Activation ([2]; 156 nM, one value per subject (IDs 151-155)): 3.6 fold and 4.9 fold and 0.4 fold
Subjects with ≥2-Fold-Activation (%) ([2]; 625 nM): (60) %
Geometric Mean with ≥2-Fold-Activation ([2]; 625 nM): 4.1 fold
Range with ≥2-Fold-Activation ([2]; 625 nM): 3.4-4.8 fold
N with ≥2-Fold-Activation ([2]; 625 nM): 3 of 5
Fold HIV-1 Activation ([2]; 625 nM, one value per subject (IDs 151-155)): 3.4 fold and 4.1 fold and 4.8 fold and 0.3 fold and 0.5 fold
Subjects with ≥2-Fold-Activation (%) ([2]; 2,500 nM): (100) %
Geometric Mean with ≥2-Fold-Activation ([2]; 2,500 nM): 3.6 fold
Range with ≥2-Fold-Activation ([2]; 2,500 nM): 2.2-5.2 fold
N with ≥2-Fold-Activation ([2]; 2,500 nM): 5 of 5
Fold HIV-1 Activation ([2]; 2,500 nM, one value per subject (IDs 151-155)): 4.1 fold and 4.2 fold and 3.2 fold and 5.2 fold and 2.2 fold
Geometric Mean with ≥2-Fold-Activation ([2]; 156, 625, or 2500 nM): 4.1 fold
Range with ≥2-Fold-Activation ([2]; 156, 625, or 2500 nM): 2.2-5.2 fold
N with ≥2-Fold-Activation ([2]; 156, 625, or 2500 nM): 5 out of 5 and 5 of 5

IL-15: interleukin-15, used at 1 nM as a separate latency reversal stimulus
Subjects with ≥2-Fold-Activation (%) ([2]; IL-15 1 nM): 66%
Fold HIV-1 Activation, Geometric Mean ([2]; IL-15 1 nM, N = 6): 2.9 fold
N with ≥2-Fold-Activation ([2]; IL-15 1 nM): 4 of 6
Fold HIV-1 Activation ([2]; IL-15 1 nM, one value per subject (IDs 205-210)): 1.6 fold and 2.6 fold and 3.3 fold and 4.4 fold and 6.3 fold and 1.4 fold

CCCCC(C)(CO)Nc1nc(N)nc2cc(F)cnc12 (stereo not drawn) [Example 98]
Patients in whom increases in HIV-specific polyfunctional CD8 T cells were seen ([3]; 100 nM): 4 of 5
Median HIV-specific polyfunctional CD8 T cells (% proliferating CD8+ cells double positive for IFN-γ and TNF-α) ([3]; 100 nM): 0.93%
Patients in whom increases in HIV-specific polyfunctional CD8 T cells were seen ([3]; 1000 nM): 4 of 5
Fold increase of median HIV-specific polyfunctional CD8 T cells ([3]; 1000 nM with HIV specific peptide pool vs vehicle, p<0.05): 7.1 fold
Median HIV-specific polyfunctional CD8 T cells (% proliferating CD8+ cells double positive for IFN-γ and TNF-α) ([3]; 1000 nM): 0.92%
